Laboratory results: ChEMBL document CHEMBL3596170, “Synthesis of 1H-1,2,3-triazole linked aryl(arylamidomethyl) - dihydrofurocoumarin hybrids and analysis of their cytotoxicity” (2015)

What was measured:
Type in all cases: functional
[1] = Cytotoxicity against human CEM13 cells assessed as cell death after 72 hrs by MTT assay
[2] = system: MT4; assay: Cytotoxicity against human MT4 cells assessed as cell death after 72 hrs by MTT assay
[3] = system: U-937; assay: Cytotoxicity against human U937 cells assessed as cell death after 72 hrs by MTT assay

| Compound | CTD50 [1] [µM] | CTD50 [2] [µM] | CTD50 [3] [µM] |
| --- | --- | --- | --- |
| COc1ccc(-c2cn(C3(C(C)C)Oc4cc5oc(=O)ccc5cc4C3=O)nn2)c(OC)c1OC (configuration not stated) | 32 | 27 | 45 |
| CC(C)C1(n2cc(-c3cc([N+](=O)[O-])ccc3O)nn2)Oc2c(cc3ccc(=O)oc3c2CN2CCN(C)CC2)C1=O (configuration not stated) | 11 | 11 | 17 |
| COc1cccc2c1C(=O)c1c(O)c3c(c(O)c1C2=O)C[C@@](O)(C(=O)CO)C[C@@H]3O[C@H]1C[C@H](N)[C@H](O)[C@H](C)O1 [DOXORUBICIN] | 7.4 | 3.4 | 0.2 |
| COc1cc(-c2cn(C3(C(C)C)Oc4cc5oc(=O)ccc5cc4C3=O)nn2)ccc1OCc1ccccc1 (configuration not stated) | 25 | 28 | 28 |
| COc1ccc(/C=C/C(=O)NCc2cn(C3(C(C)C)Oc4cc5oc(=O)ccc5cc4C3=O)nn2)c(OC)c1 (configuration not stated) | 30 | 22 | 25 |
| COc1cc(OC)cc(C(=O)NCc2cn(C3(C(C)C)Oc4cc5oc(=O)ccc5cc4C3=O)nn2)c1 (configuration not stated) | 18 | 19 | 45 |
| COc1ccc(/C=C/C(=O)NCc2cn(C3(C(C)C)Oc4c(cc5ccc(=O)oc5c4CN4CCN(C)CC4)C3=O)nn2)c(OC)c1 (configuration not stated) | 16 | 13 | 16 |
| CC(C)C1(n2cc(-c3ccc4c(c3)OCCO4)nn2)Oc2c(cc3ccc(=O)oc3c2CN2CCN(C)CC2)C1=O (configuration not stated) | 10 | 13 | 10 |
| CC(C)C1(n2cc(CNC(=O)c3cc(O)c(O)c(O)c3)nn2)Oc2cc3oc(=O)ccc3cc2C1=O (configuration not stated) | 11 | 12 | 20 |
| COc1c(C(C)C)oc2cc3oc(=O)ccc3cc12 [PEUCEDANIN] | 81 | 67 | 58 |
| COc1cc(C(=O)NCc2cn(C3(C(C)C)Oc4cc5oc(=O)ccc5cc4C3=O)nn2)ccc1O (configuration not stated) | 9 | 10 | 8 |
| CC(C)C1(n2cc(-c3ccccc3)nn2)Oc2c(cc3ccc(=O)oc3c2CN2CCN(C)CC2)C1=O (configuration not stated) | 32 | 33 | 25 |
| CC(C)C1(n2cc(CNC(=O)c3ccc(N)cc3O)nn2)Oc2cc3oc(=O)ccc3cc2C1=O (configuration not stated) | 17 | 13 | 24 |
| CC(C)C1(N=[N+]=[N-])Oc2cc3oc(=O)ccc3cc2C1=O (configuration not stated) | 49 | 50 | 53 |
| CC(C)C1(n2cc(-c3ccccc3)nn2)Oc2cc3oc(=O)ccc3cc2C1=O (configuration not stated) | 51 | 70 | 31 |
| CC(C)C1(n2cc(-c3ccc4c(c3)OCCO4)nn2)Oc2cc3oc(=O)ccc3cc2C1=O (configuration not stated) | 15 | 11 | 8 |
| CC(C)C1(n2cc(CNC(=O)c3cc(O)cc(O)c3)nn2)Oc2cc3oc(=O)ccc3cc2C1=O (configuration not stated) | 16 | 22 | 23 |
| CC(C)C1(n2cc(-c3cc([N+](=O)[O-])ccc3O)nn2)Oc2cc3oc(=O)ccc3cc2C1=O (configuration not stated) | 21 | 11 | 20 |
| CC(C)C1(N=[N+]=[N-])Oc2c(cc3ccc(=O)oc3c2CN2CCN(C)CC2)C1=O (configuration not stated) | 58 | 62 | 45 |
